# Experimental data reported in publication PMC4703063, “Dual functionality of O-GlcNAc transferase is required for Drosophila development” (Open Biology, 2015).
# Where a chain is given by its changes, count along the chain named. Numbers in names are those of the source.
# T1: Δ1–312 hOGT (Homo sapiens, UniProt O15294)
# T1 construct: gene OGT; N-terminally truncated, residues 1-312 removed (printed once as Δ1-313 beside the Ki); part of TPRs plus catalytic domain; recombinant
# T1 sequence (O15294 323-1041): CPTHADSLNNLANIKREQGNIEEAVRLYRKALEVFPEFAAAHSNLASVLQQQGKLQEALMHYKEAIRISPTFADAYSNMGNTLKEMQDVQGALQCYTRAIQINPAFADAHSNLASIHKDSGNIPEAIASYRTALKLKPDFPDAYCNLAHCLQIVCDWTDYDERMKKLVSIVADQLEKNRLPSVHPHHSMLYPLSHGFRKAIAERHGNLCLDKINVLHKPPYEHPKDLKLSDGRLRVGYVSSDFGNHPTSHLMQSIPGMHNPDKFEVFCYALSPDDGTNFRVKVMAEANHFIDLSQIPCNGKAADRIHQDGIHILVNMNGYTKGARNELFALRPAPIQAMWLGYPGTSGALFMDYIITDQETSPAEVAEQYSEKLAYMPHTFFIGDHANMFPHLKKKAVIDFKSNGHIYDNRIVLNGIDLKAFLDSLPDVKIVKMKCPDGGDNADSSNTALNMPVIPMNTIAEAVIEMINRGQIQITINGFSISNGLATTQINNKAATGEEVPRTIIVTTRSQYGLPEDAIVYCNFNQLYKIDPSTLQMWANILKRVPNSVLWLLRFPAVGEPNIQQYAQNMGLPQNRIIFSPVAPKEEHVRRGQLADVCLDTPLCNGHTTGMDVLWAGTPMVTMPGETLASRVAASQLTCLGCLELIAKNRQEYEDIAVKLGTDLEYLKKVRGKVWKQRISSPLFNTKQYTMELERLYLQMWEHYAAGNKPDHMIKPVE
# T2: Δ1–352 DmOGT (Drosophila melanogaster, UniProt Q7KJA9, K872M)
# T2 construct: gene sxc; N-terminally truncated construct starting at residue 353 in TPR 10 (part of TPRs plus catalytic domain); expressed in E. coli (ArcticExpress), purified as hOGT Δ1-312; wild type in kinetics, K872M in crystal
# T2 sequence (Q7KJA9 353-1059 K872M): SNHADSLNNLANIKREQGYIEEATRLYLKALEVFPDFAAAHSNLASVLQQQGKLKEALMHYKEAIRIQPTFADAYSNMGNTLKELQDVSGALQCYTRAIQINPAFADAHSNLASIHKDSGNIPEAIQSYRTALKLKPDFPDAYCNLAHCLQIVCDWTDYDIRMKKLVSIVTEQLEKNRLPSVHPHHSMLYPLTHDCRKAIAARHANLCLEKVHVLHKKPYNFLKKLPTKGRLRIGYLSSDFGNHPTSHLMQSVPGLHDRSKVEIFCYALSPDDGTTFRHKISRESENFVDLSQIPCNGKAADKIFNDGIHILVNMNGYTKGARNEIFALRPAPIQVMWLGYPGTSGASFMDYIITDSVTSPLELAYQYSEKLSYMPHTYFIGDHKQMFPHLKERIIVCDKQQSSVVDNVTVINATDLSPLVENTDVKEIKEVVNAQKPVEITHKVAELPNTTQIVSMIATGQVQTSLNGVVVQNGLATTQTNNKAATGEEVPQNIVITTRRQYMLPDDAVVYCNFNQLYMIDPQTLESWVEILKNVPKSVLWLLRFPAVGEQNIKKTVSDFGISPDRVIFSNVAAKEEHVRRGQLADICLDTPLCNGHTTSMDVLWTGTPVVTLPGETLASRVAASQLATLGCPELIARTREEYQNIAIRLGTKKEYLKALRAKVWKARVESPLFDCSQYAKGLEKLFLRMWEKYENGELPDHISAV
# T3: Δ1–352 DmOGT (Drosophila melanogaster, UniProt Q7KJA9)
# T3 construct: gene sxc; N-terminally truncated construct starting at residue 353 in TPR 10 (part of TPRs plus catalytic domain); expressed in E. coli (ArcticExpress), purified as hOGT Δ1-312; wild type in kinetics, K872M in crystal
# T3 sequence (Q7KJA9 353-1059): T2 sequence (Q7KJA9 353-1059 K872M) with M520K
# B1: Δ1–312 hOGT (Homo sapiens) (protein)
# chain: T1 sequence (O15294 323-1041)
# notes: N-terminally truncated, residues 1-312 removed (printed once as Δ1-313 beside the Ki); part of TPRs plus catalytic domain; recombinant
# B2: Δ1–352 DmOGT (Drosophila melanogaster) (protein)
# chain: T2 sequence (Q7KJA9 353-1059 K872M) with M520K
# notes: N-terminally truncated construct starting at residue 353 in TPR 10 (part of TPRs plus catalytic domain); expressed in E. coli (ArcticExpress), purified as hOGT Δ1-312; wild type in kinetics, K872M in crystal
# Assays:
# Δ1–312 hOGT [1] = target: T1, Δ1–312 hOGT; experiment: radiometric transfer assay on RBL2 peptide, three-parameter dose-response fit; type: biochemical
# Δ1–312 hOGT [2] = target: T1, Δ1–312 hOGT; experiment: radiometric transfer assay on RBL2 peptide, Ki from IC50 by Cheng-Prusoff; type: biochemical
# Δ1–352 DmOGT [3] = target: T2, Δ1–352 DmOGT; experiment: X-ray crystallography (co-crystal, […] Å); type: binding; details: 3 mM UDP-5S-GlcNAc; pH 7.5 protein buffer; 21 °C
# Δ1–352 DmOGT [4] = target: T3, Δ1–352 DmOGT; experiment: radiometric transfer assay on RBL2 peptide, Ki from IC50 by Cheng-Prusoff; type: biochemical
# Δ1–352 DmOGT [5] = target: T3, Δ1–352 DmOGT; experiment: radiometric transfer assay on RBL2 peptide, three-parameter dose-response fit; type: biochemical
# [6] = substrate: CC(=O)N[C@H]1[C@@H](OP(=O)(O)OP(=O)(O)OC[C@H]2O[C@@H](n3ccc(=O)[nH]c3=O)[C@H](O)[C@@H]2O)O[C@H](CO)[C@@H](O)[C@@H]1O; experiment: radiometric transfer assay on RBL2 peptide, Michaelis-Menten fit; type: biochemical, Homo sapiens; details: 0.25 mM RBL2 peptide …, UDP-[3H]-GlcNAc tracer, pH 7.5
# [7] = substrate: CC(=O)N[C@H]1[C@@H](OP(=O)(O)OP(=O)(O)OC[C@H]2O[C@@H](n3ccc(=O)[nH]c3=O)[C@H](O)[C@@H]2O)O[C@H](CO)[C@@H](O)[C@@H]1O; experiment: as above; type: biochemical, Drosophila melanogaster; details: 0.25 mM RBL2 peptide …, UDP-[3H]-GlcNAc tracer, pH 7.5
molecule,measurement,setting,value
CC(=O)N[C@@H]1[C@@H](O)[C@H](O)[C@@H](CO)S[C@@H]1OP(=O)(O)OP(=O)(O)OC[C@H]1O[C@@H](n2ccc(=O)[nH]c2=O)[C@H](O)[C@@H]1O [UDP-5S-GlcNAc],IC50,Δ1–312 hOGT [1],24.6 µM
same,Ki,Δ1–312 hOGT [2],13.6 µM
same,"X-ray crystallography (co-crystal, 2.7 Å)",Δ1–352 DmOGT [3],crystallized in complex with the inhibitor/substrate analogue UDP-5S-GlcNAc
same,Ki,Δ1–352 DmOGT [4],36.2 µM
same,IC50,Δ1–352 DmOGT [5],68.3 µM
B1,Km,[6],6.6 ± 0.3 µM
B2,Km,[7],17.8 ± 0.7 µM
